What was measured:
Format in all cases: cell membranes
[1] = target: Sodium-dependent serotonin transporter (Homo sapiens, UniProt P31645); test: Radioligand Binding Assay: Compounds were dissolved in 100% DMSO at a concentration 100 times the desired highest assay concentration, serially diluted 1:3 in 100% DMSO, and 0.4 ul/well of each solution was dispensed to a Nunc polypropylene, round bottom, 384-well plate. […] 20 ul/well of a 2x membrane preparation (15 ug/ml in 50 mM Tris-Cl, pH 7.5, 120 mM NaCl, 5 mM KCl) and 20 ul/well of a 2x radioligand solution (520 pM [125I]RTI-55 in 50 mM Tris-Cl, pH 7.5, 120 mM NaCl, 5 mM KCl) were added to each well and the reaction incubated for 1 hour at room temperature. The contents of the assay plate were then transferred to a Millipore MultiscreenHTS GF/B filter plate which was pretreated with 0.5% PEI for at least one hour. The plate was vacuum filtered and washed with 7 washes of 100 uA/well 50 mM Tris-Cl, pH 7.5, 120 mM NaCl, 5 mM KCl chilled to 4 C.
[2] = target: Sodium-dependent noradrenaline transporter (Homo sapiens, UniProt P23975); test: Radioligand Binding Assay: Compounds were dissolved in 100% DMSO at a concentration 100 times the desired highest assay concentration, serially diluted 1:3 in 100% DMSO, and 1.0 ul/well of each solution was dispensed to a Nunc polypropylene, round bottom, 384-well plate. […] 50 ul/well of a 2x membrane preparation (0.4 mg/ml in 50 mM Tris-Cl, pH 7.5, 120 mM NaCl, 5 mM KCl) and 50 ul/well of a 2x radioligand solution (4 nM [3H]nisoxetine in 50 mM Tris-Cl, pH 7.5, 120 mM NaCl, 5 mM KCl) were added to the well and the reaction incubated for 1 hour at room temperature. The contents of the assay plate were then transferred to a Millipore MultiscreenHTS GF/B filter plate which was pretreated with 0.5% PEI for at least one hour. The plate was vacuum filtered and washed with 7 washes of 100 ul/well 50 mM Tris-Cl, pH 7.5, 120 mM NaCl, 5 mM KCl chilled to 4 C.
[3] = target: Sodium-dependent dopamine transporter (Homo sapiens, UniProt Q01959); test: Radioligand Binding Assay: Compounds were dissolved in 100% DMSO at a concentration 100 times the desired highest assay concentration, serially diluted 1:3 in 100% DMSO, and 0.4 ul/well of each solution was dispensed to a Nunc polypropylene, round bottom, 384-well plate. […] 20 ul/well of a 2x membrane preparation (12.5 ug/ml in 30 mM sodium phosphate buffer, pH 7.9 at 4 C.) and 20 ul/well of a 2x radioligand solution (250 pM [125I]RTI-55 in 30 mM sodium phosphate buffer, pH 7.9 at 4 C.) were added to the well and the reaction incubated for 1 hour at room temperature. The contents of the assay plate were then transferred to a Millipore MultiscreenHTS GF/B filter plate which was pretreated with 0.5% PEI for at least one hour. The plate was vacuum-filtered and washed with 7 washes of 100 ul/well 50 mM Tris-Cl, pH 7.5, 120 mM NaCl, 5 mM KCl chilled to 4 C.
Sodium-dependent dopamine transporter, sequence (Q01959 whole entry): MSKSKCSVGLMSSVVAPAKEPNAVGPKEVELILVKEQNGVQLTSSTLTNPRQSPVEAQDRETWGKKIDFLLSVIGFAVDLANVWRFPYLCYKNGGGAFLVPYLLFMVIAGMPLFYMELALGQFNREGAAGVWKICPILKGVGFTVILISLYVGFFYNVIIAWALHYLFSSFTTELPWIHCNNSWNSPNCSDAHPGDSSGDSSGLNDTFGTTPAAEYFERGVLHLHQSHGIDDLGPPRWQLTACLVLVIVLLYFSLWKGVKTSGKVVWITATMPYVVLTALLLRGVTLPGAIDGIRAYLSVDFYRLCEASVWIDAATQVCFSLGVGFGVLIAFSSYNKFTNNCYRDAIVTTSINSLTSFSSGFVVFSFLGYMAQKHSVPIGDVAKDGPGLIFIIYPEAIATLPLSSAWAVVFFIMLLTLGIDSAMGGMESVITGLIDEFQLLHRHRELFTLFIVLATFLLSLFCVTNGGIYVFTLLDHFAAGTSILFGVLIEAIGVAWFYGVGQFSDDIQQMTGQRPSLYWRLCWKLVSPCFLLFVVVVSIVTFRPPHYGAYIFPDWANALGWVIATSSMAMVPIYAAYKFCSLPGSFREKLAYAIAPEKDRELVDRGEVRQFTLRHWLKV

Sodium-dependent serotonin transporter, sequence (P31645 whole entry): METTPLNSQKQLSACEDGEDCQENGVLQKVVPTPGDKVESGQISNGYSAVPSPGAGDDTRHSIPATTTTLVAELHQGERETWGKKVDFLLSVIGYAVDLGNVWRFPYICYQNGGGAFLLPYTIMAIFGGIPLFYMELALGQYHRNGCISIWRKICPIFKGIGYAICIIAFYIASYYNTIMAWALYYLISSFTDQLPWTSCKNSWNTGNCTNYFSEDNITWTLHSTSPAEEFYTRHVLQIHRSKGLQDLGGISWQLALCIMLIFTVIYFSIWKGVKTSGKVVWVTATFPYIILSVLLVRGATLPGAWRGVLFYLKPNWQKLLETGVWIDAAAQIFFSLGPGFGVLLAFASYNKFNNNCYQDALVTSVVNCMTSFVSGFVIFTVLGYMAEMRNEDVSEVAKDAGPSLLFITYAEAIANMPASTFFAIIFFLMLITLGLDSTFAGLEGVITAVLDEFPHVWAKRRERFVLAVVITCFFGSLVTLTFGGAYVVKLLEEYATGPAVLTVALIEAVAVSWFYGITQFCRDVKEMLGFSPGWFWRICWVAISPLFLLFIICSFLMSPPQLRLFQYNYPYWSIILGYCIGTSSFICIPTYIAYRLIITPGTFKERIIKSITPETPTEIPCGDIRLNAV
Sodium-dependent noradrenaline transporter, sequence (P23975 whole entry): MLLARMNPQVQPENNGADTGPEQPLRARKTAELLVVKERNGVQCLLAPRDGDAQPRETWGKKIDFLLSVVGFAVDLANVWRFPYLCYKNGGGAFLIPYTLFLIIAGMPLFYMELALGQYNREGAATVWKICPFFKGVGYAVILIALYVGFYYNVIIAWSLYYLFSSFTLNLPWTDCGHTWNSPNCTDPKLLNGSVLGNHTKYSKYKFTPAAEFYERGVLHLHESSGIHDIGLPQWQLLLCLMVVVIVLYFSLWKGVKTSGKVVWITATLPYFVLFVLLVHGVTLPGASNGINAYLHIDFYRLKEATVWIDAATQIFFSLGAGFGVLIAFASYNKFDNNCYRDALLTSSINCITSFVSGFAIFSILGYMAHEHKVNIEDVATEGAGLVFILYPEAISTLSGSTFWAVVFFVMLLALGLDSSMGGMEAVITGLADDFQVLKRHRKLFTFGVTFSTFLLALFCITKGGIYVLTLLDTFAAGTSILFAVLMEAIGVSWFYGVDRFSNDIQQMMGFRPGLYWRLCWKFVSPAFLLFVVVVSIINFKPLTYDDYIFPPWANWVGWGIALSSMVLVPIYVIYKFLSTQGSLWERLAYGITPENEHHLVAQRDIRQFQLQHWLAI

## O=c1[nH]c2ccc(-c3ccc4c(c3)CN3CCC4(c4ccc(Cl)c(Cl)c4)CC3)cc2o1
[1]
  IC50: 9.3 nM
[2]
  IC50: 451 nM
[3]
  IC50: 25.5 nM

From ChEMBL document CHEMBL3639048, “2,5-methano- and 2,5-ethano-tetrahydrobenzazepine derivatives and use thereof to block reuptake of norepinephrine, dopamine, and serotonin” (2015)
